The test deals with T1, SH (O2-tolerant, NAD+-reducing hydrogenase, soluble hydrogenase) (Cupriavidus necator, UniProt P22317).
T1 construct: gene hoxF; purified; immobilised on Amberlite FP54; hydrogenase and diaphorase modules; with NAD-reducing hydrogenase HoxS subunit gamma; NAD-reducing hydrogenase HoxS subunit delta; NAD-reducing hydrogenase HoxS subunit beta; NAD-reducing hydrogenase subunit HoxI
The experiment in a line: on-line H2 consumption and NADH evolution. The format is biochemical. Particulars: immobilised enzyme in cascade; 2 mM NAD+, H2, Tris-HCl 50 mM pD 8.0, 22 °C.

T1 sequence (P22317 whole entry): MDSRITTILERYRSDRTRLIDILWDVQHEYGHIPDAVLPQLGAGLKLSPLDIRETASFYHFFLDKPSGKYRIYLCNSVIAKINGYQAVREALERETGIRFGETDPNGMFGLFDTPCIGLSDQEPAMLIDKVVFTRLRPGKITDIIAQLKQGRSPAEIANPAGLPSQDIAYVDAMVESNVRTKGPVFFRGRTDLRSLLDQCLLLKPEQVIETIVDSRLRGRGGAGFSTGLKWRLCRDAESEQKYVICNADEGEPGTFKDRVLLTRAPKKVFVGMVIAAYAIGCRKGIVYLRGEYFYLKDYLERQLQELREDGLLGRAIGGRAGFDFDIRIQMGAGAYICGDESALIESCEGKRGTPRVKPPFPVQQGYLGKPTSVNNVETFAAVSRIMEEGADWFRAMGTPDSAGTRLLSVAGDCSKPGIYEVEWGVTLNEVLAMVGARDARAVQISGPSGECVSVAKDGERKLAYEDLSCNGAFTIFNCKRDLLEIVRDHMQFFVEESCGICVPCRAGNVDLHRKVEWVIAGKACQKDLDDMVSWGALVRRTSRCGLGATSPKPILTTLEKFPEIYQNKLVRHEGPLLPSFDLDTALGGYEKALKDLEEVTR
T1 sequence (P22318 2-234 partner): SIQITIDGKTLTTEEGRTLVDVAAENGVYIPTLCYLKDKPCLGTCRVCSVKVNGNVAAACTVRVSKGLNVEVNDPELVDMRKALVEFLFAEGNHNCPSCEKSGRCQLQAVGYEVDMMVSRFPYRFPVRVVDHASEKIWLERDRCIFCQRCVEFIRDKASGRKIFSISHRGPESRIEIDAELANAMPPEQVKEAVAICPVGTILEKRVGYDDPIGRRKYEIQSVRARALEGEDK
T1 sequence (P22319 whole entry partner): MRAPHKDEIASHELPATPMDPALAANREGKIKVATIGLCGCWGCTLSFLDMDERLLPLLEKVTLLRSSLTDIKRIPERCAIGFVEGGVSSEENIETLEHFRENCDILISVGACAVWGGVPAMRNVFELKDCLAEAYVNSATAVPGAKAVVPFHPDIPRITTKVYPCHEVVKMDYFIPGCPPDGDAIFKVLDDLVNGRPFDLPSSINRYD
T1 sequence (P22320 2-464 partner): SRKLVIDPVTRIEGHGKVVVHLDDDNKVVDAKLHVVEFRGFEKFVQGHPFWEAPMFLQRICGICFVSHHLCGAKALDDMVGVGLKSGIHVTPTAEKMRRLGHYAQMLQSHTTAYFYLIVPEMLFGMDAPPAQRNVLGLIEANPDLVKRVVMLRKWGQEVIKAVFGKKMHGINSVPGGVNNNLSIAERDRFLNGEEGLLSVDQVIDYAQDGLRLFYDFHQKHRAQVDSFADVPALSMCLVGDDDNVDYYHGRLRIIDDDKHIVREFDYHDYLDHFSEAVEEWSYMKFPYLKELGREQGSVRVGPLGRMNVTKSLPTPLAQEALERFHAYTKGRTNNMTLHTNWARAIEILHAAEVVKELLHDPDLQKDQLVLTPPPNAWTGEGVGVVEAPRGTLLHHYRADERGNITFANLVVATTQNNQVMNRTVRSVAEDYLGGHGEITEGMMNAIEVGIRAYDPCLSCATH

Consider `NC(=O)c1ccc[n+]([C@@H]2O[C@H](COP(=O)(O)OP(=O)(O)OC[C@H]3O[C@@H](n4cnc5c(N)ncnc54)[C@H](O)[C@@H]3O)[C@@H](O)[C@H]2O)c1` [NAD^+], for which the “on-line H2 consumption and NADH evolution” value is “consumption of H2 (A) and the evolution of NADH (C)”.

For the origin of these results see article PMC7318245, “Powering Artificial Enzymatic Cascades with Electrical Energy” (Angewandte Chemie (International Ed. in English), 2020).
